Measured values as given in ChEMBL document CHEMBL2331387, “Chemical probes of a trisubstituted pyrrole to identify its protein target(s) in Plasmodium sporozoites” (2013).
Activity calls are given as the source filed them. No cut-off for these calls is given here.

How the values were obtained:
Plasmodium berghei [1] = assay: Antimalarial activity against sporozoite stage of Plasmodium berghei infected in human HepG2 cells assessed as inhibition of sporozoite infectivity at 10 uM after 40 hrs; format: functional, organism-based
Plasmodium berghei [2] = assay: Antimalarial activity against sporozoite stage of Plasmodium berghei infected in human HepG2 cells assessed as inhibition of sporozoite infectivity at 2 uM after 40 hrs; format: functional

Row | SMILES | inhibition (Plasmodium berghei [1]) | inhibition at 2 µM (Plasmodium berghei [2]; HepG2, 40 h) | inhibition (Plasmodium berghei [2])
1 | NCCN1CCC(c2cc(-c3ccncc3)c(-c3ccc(F)cc3)[nH]2)CC1 | Active |  | 
2 | CN1CCC(c2cc(-c3ccncc3)c(-c3ccc(F)cc3)[nH]2)CC1 |  | > 90% | 
3 | O=C(CCCC[C@@H]1SC[C@@H]2NC(=O)N[C@@H]21)NCCOCCOCCOCCOCCC(=O)NCCN1CCC(c2cc(-c3ccncc3)c(-c3ccc(F)cc3)[nH]2)CC1 | inactive |  | inactive
4 | O=C(CCCCCNC(=O)CCCC[C@@H]1SC[C@@H]2NC(=O)N[C@@H]21)NCCCCCC(=O)NCCN1CCC(c2cc(-c3ccncc3)c(-c3ccc(F)cc3)[nH]2)CC1 | inactive |  | inactive
5 | Fc1ccc(-c2[nH]c(C3CCNCC3)cc2-c2ccncc2)cc1 | Active |  | 
